# Reference: patent US20250057928A1, “VACCINE COMPOSITION FOR INDUCING ANTI-IL-23 ANTIBODY” (OSAKA UNIVERSITY, priority 2021, published 2025)
# Where no end group is shown, it is not given here.
# What was measured:
# [1] = tested on: IL-17 production in rhIL-23 stimulated mouse splenocyte; assay: Neutralization activity of mouse antiserum: IL-17 production in rhIL-23 stimulated mouse splenocyte; assay type: cell-based; conditions: antiserum final 15-fold, rhIL-23 10 ng/ml, 3 days culture; IL-17A/F ELISA
# Experimental: (§1) AJP001 conjugated peptide (SEQ ID NOs: 6-37) was dissolved in physiological saline, mixed with an equal amount of 2% Alhydrogel (invivogen), and this was intradermally administered to BALB/c mice (female, 6-week-old, N=5-6) at 0.5 mg/body 3 times at two-week intervals. Blood was collected before administration and at the time point of 6 weeks after initial administration, and the antibody titer (GMT) to each epitope sequence and binding ability to recombinant human IL-23 protein (rhIL-23) (Peprotech) were measured by the ELISA method (same method as in Example 1). The binding to rhIL-23 was evaluated by a binding ratio to normal serum by calculating the ratio of the absorbance of a well added with normal mouse serum to the absorbance of a well added with antiserum derived from a mouse administered with each AJP001 conjugated peptide (SEQ ID NOs: 6-37). In addition, the neutralization activity of mouse antiserum was evaluated using an action on IL-17 production in rhIL-23 stimulated mouse splenocyte as an index. The spleen of normal BALB/c mouse (female, 5-week-old, N=3) was triturated using a syringe barrel and a cell strainer and washed with and suspended in HBSS (−). Erythrocytes were then removed using ACK Buffer (Thermo fisher scientific), and splenocytes were isolated. The splenocytes were prepared to 2.5×10^6 cells/mL with 10% FBS/1% penicillin/streptomycin/4 ng/mL rmIL-2-containing RPMI1640 medium (culture medium), and seeded in a 96 well plate at 100 μl/well. The antiserum (final concentration 15-fold) of the mice administered with each AJP001 conjugated peptide and rhIL-23 (final concentration 10 ng/ml) were added to the culture medium, reacted at 37° C. for 2 hr, added at 100 μL/well to a 96-well plate seeded with splenocytes, and cultured for 3 days in a 37° C./5% CO2 incubator. An untreated well and a control well to which normal mouse serum and rhIL-23 were added were provided. IL-17A/F in the culture supernatant was measured using Mouse IL-17A/F ELISA kit (R&D systems), the proportion (%) of IL-17 to normal serum was calculated from the IL-17 concentrations of untreated well (A), control well (B), and well (C) to which antiserum of the mice administered with each AJP001 conjugated peptide was added and according to the following formula, and the neutralization activity was evaluated.
# Percentage of IL-17 to normal serum (%)=100×(C−A/B−A)
# epitope peptide = assay: Antibody titer (GMT) of serum of mice administered AJP001 conjugated peptide, ELISA; assay type: in vivo, mouse; conditions: BALB/c mice, 0.5 mg/body intradermal with equal amount of 2% Alhydrogel, 3 times at two-week intervals; serum 6 weeks after initial administration; titer to each epitope sequence
# Experimental: AJP001 conjugated peptide having one of the B cell epitope sequences of SEQ ID NOs: 1-5 was dissolved in physiological saline and intradermally administered twice to BALB/c mice (female, 6-week-old, N=5-6) at 0.5 mg/body at 2-week intervals. Blood was collected before administration and 5 weeks after the initial administration, and the antibody titer against each AJP001 conjugated peptide and the binding ability to recombinant mouse IL-23 protein (rmIL-23) were measured by the ELISA method. Specifically, a 96-well plate immobilized with an epitope peptide dissolved at 10 μg/mL in carbonate buffer was blocked with 5% skim milk/PBS, and then serum serially diluted with 5% skim milk/PBS was added, and the mixture was left standing at 4° C. overnight. After washing the wells with PBS-T, HRP-labeled anti-mouse IgG antibody (GE Healthcare) diluted with 5% skim milk/PBS was added and the mixture was shaken at room temperature for 3 hr. After washing the wells with PBS-T, TMB solution (SIGMA) was added, the wells were allowed to stand for 30 min in the dark, the reaction was stopped by adding 0.5M H2SO4, and the absorbance at 450 nm was measured using a plate reader. The serum dilution rate that gave 1/2 (OD=1.75) of the maximum absorbance was defined as the antibody titer, and the geometric mean titer: GMT was calculated from the individual values. Binding to IL-23 protein was measured by the ELISA method in the same manner as the antibody titer, using rmIL-23 (Antibodies-online GmbH) as the solid-phased antigen and goat serum for blocking.
# AJP001 conjugated peptide (SEQ ID NO: 2) was dissolved in physiological saline and intradermally administered to BALB/c mice (female, 6-week-old, N=6) at 1 mg/body 3 times at two-week intervals, and blood was collected every 2 weeks until 8 weeks. The antibody titer (GMT) of all the collected sera and the binding ability to rmIL-23 of the serum at the time point of 6 weeks were measured by the ELISA method (same method as in Example 1). The antibody titer and the binding of the induced antibody to rmIL-23 at each time point are shown in FIGS. 2 (a) and (b), respectively.
# as §1, with “An untreated well and a control well to which normal mouse serum and rhIL-23 were added were provided. IL-17A/F in the culture supernatant was measured using Mouse IL-17A/F ELISA kit (R&D systems), the proportion (%) of IL-17 to normal serum was calculated from the IL-17 concentrations of untreated well (A), control well (B), and well (C) to which antiserum of the mice administered with each AJP001 conjugated peptide was added and according to the following formula, and the neutralization activity was evaluated.” left out
# [2] = tested on: recombinant human IL-23 protein (rhIL-23); assay: Binding of mouse antiserum to rhIL-23, ELISA; conditions: rhIL-23 ELISA; antiserum of BALB/c mice 6 weeks after initial administration, 0.5 mg/body with Alhydrogel
# Experimental: as §1
# AJP001 conjugated peptide (SEQ ID NO: 6) was dissolved in physiological saline and intradermally administered to BALB/c mice (female, 6-week-old, N=6) at 1 mg/body 3 times at two-week intervals, and blood was collected every 2 weeks until 8 weeks. The antibody titer (GMT) of all the collected sera and the binding ability to rhIL-23 of the serum at 6 weeks were measured by the ELISA method. In FIG. 5, “*” means P<0.05.
Substance,neutralization activity (percentage of IL-17 to normal serum (%)) [1] [%],antibody titer (GMT) (epitope peptide),binding to IL-23 (binding ratio to normal serum) [2]
6 (SPSQPWQR; not fully specified (N-terminus); listed as Homo sapiens) [compound 6],15.8,12563,4.40
7 (APSQPWQR; not fully specified (N-terminus)) [compound 7],4.2,5417,1.40
8 (SASQPWQR; not fully specified (N-terminus)) [compound 8],1.4,3485,1.37
9 (SPAQPWQR; not fully specified (N-terminus)) [compound 9],4.0,4683,1.01
10 (SPSAPWQR; not fully specified (N-terminus)) [compound 10],0.0,19795,1.03
11 (SPSQAWQR; not fully specified (N-terminus)) [compound 11],8.1,10441,1.55
12 (SPSQPAQR; not fully specified (N-terminus)) [compound 12],3.1,48594,1.12
13 (SPSQPWAR; not fully specified (N-terminus)) [compound 13],4.8,3215,1.11
14 (SPSQPWQA; not fully specified (N-terminus)) [compound 14],8.0,3331,1.23
15 (PWQRPWQR; not fully specified (N-terminus)) [compound 15],10,458,1.16
16 (QWQRPWQR; not fully specified (N-terminus)) [compound 16],3.6,201,1.09
17 (SSSQPWQR; not fully specified (N-terminus)) [compound 17],1.6,6096,1.26
18 (STSQPWQR; not fully specified (N-terminus)) [compound 18],0.0,8211,1.21
19 (SPSQSWQR; not fully specified (N-terminus)) [compound 19],2.4,18311,1.33
20 (SPSQTWQR; not fully specified (N-terminus)) [compound 20],5.8,36347,1.23
21 (SSSQSWQR; not fully specified (N-terminus)) [compound 21],6.9,19793,1.07
22 (SSSQTWQR; not fully specified (N-terminus)) [compound 22],8.5,2160,1.35
23 (STSQSWQR; not fully specified (N-terminus)) [compound 23],9.4,31720,1.33
24 (STSQTWQR; not fully specified (N-terminus)) [compound 24],0.0,126353,1.20
25 (SPSQQWQR; not fully specified (N-terminus)) [compound 25],2.1,285265,1.66
